The values that follow come from patent publication US20250171437A1 (Agios Pharmaceuticals,Inc., priority 2022, published 2025).

In the experiment the target is T1, human PAH with the R408W mutation (A375 R408W cells) (Homo sapiens, UniProt P00439, R408W).
T1 construct: expressed in transfected cells
T1 sequence (P00439 1-452 R408W): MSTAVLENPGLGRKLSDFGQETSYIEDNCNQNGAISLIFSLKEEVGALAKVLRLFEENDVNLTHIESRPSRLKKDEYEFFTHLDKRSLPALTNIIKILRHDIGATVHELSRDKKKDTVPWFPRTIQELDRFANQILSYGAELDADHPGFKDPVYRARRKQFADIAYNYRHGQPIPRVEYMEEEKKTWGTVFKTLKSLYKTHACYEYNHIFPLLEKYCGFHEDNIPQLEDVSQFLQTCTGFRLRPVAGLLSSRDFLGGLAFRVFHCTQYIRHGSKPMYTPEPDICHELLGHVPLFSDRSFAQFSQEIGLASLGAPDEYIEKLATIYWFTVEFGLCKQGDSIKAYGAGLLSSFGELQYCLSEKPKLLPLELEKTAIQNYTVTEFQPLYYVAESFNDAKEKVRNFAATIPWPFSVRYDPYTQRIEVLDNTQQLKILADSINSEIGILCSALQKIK
Description: Cell Based Phenylalanine Flux Assay. The note with it: 24 hrs with compound, then 20 μM sepiapterin and 800 μM 13C9,15N-Phenylalanine for 4 hours, 13C-Tyrosine by LC-MS, average where tested multiple times. The essentials:
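LC-MS quantitation of 13C-tyrosine in media gave AC50 values. Stable A375 R408W PAH cells were preincubated 24 h with compound, then fed 800 μM labelled Phe plus 20 μM sepiapterin for 4 h. Dose curves were 10-point, tested in duplicate, averaged over repeat runs.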

The mark [1] stands for this setting: A375 cells expressing R408W PAH.

Bounds are passed on as bounds.

Regarding `Cn1ccc(-c2nc(C(F)F)c(C(=O)N3CCc4[nH]cnc4[C@@H]3c3nc4ccccc4o3)o2)n1` [Example 762, (R)-(4-(benzo[d]oxazol-2-yl)-6,7-dihydro-1H-imidazo[4,5-c]pyridin-5(4H)-yl)(4-(difluoromethyl)-2-(1-methyl-1H-pyrazol-3-yl)oxazol-5-yl)methanone], where the note is “A375 R408W cells”, the AC50 (usually the concentration at which the activity in the assay is half-maximal) lay within 1000 to 5000 nM.

Regarding `O=C(c1cnn2cc(N3CCNCC3)ccc12)N1CCc2[nH]cnc2[C@H]1c1nc2cc(F)ccc2o1` (single isomer, unassigned), the AC50 under setting [1] was not below 5000 nM.

Regarding `Cc1nc(C(=O)N2CCc3[nH]cnc3[C@H]2c2nc3c(C)cccc3o2)n(C)n1` [Example 819, (S)-(1,3-dimethyl-1H-1,2,4-triazol-5-yl)(4-(4-methylbenzo[d]oxazol-2-yl)-6,7-dihydro-1H-imidazo[4,5-c]pyridin-5(4H)-yl)methanone], the AC50 (A375 R408W cells) lay in the range of 500 to 1000 nM.

`CC(C)n1ncnc1C(=O)N1CCc2[nH]cnc2[C@H]1c1nc2ccccc2o1` [Example 705, (S)-(4-(benzo[d]oxazol-2-yl)-6,7-dihydro-1H-imidazo[4,5-c]pyridin-5(4H)-yl)(1-isopropyl-1H-1,2,4-triazol-5-yl)methanone]: the AC50 (A375 R408W cells) is not above 500 nM.

Take `O=C(c1ccnn1C1CC1)N1CCc2[nH]cnc2[C@H]1c1nc2ccccc2o1` [Example 725, (S)-(4-(benzo[d]oxazol-2-yl)-6,7-dihydro-1H-imidazo[4,5-c]pyridin-5(4H)-yl)(1-cyclopropyl-1H-pyrazol-5-yl)methanone]: the AC50 (A375 R408W cells) is not above 500 nM.

Regarding `Cn1ncnc1C(=O)N1CCc2[nH]cnc2C1c1nc2ccccc2o1` (centres unmarked), the AC50 under setting [1] lay within 1000 to 5000 nM.

Regarding `O=C(c1nnc(C2CC2)o1)N1CCc2[nH]cnc2[C@H]1c1nc2cc(F)ccc2o1` [Example 15, (S)-(5-cyclopropyl-1,3,4-oxadiazol-2-yl)(4-(5-fluorobenzo[d]oxazol-2-yl)-6,7-dihydro-1H-imidazo[4,5-c]pyridin-5(4H)-yl)methanone], the AC50 (A375 R408W cells) lay in the range of 500 to 1000 nM.

With `CC(C)(O)C1CCN(c2ccc3c(C(=O)N4CCc5[nH]cnc5[C@@H]4c4nc5cccc(F)c5o4)cnn3c2)CC1` [Example 367, (R)-(4-(7-fluorobenzo[d]oxazol-2-yl)-6,7-dihydro-1H-imidazo[4,5-c]pyridin-5(4H)-yl)(6-(4-(2-hydroxypropan-2-yl)piperidin-1-yl)pyrazolo[1,5-a]pyridin-3-yl)methanone], the AC50 (A375 R408W cells) fell in the range of 1000 to 5000 nM.

As for `Cn1ccc(-c2nc(C(F)F)c(C(=O)N3CCc4[nH]cnc4[C@H]3c3nc4cccc(F)c4o3)o2)n1` [Example 591, (S)-(4-(difluoromethyl)-2-(1-methyl-1H-pyrazol-3-yl)oxazol-5-yl)(4-(7-fluorobenzo[d]oxazol-2-yl)-6,7-dihydro-1H-imidazo[4,5-c]pyridin-5(4H)-yl)methanone], the AC50 (A375 R408W cells) is not above 500 nM.

Consider `O=C(c1ocnc1C(F)F)N1CCc2[nH]cnc2[C@@H]1c1nc2ccc(Br)cc2o1` [Example 146, (R)-(4-(6-bromobenzo[d]oxazol-2-yl)-6,7-dihydro-1H-imidazo[4,5-c]pyridin-5(4H)-yl)(4-(difluoromethyl)oxazol-5-yl)methanone], for which, where the note is “A375 R408W cells”, the AC50 lay within 500 to 1000 nM.

With `Cc1cccc2nc(C3c4nc[nH]c4CCN3C(=O)c3ccnn3C(C)C)oc12` (centres unmarked), the AC50 under setting [1] was not below 5000 nM.

Take `CC(C)(C)c1ncc(C(=O)N2CCc3[nH]cnc3[C@H]2c2nc3cc(F)ccc3o2)o1` [Example 21, (S)-(2-(tert-butyl)oxazol-5-yl)(4-(5-fluorobenzo[d]oxazol-2-yl)-6,7-dihydro-1H-imidazo[4,5-c]pyridin-5(4H)-yl)methanone]: the AC50 (A375 R408W cells) was not above 500 nM.

With `O=C(c1ocnc1C(F)F)N1CC2(CC2)c2[nH]cnc2[C@H]1c1nc2cccc(F)c2o1` [Example 911, (S)-(4-(difluoromethyl)oxazol-5-yl)(4′-(7-fluorobenzo[d]oxazol-2-yl)spiro[cyclopropane-1,7′-imidazo[4,5-c]pyridin]-5′(1′H,4′H,6′H)-yl)methanone], the AC50 (A375 R408W cells) is not above 500 nM.

On to `O=C(c1nnc(-c2cnccn2)o1)N1CCc2[nH]cnc2[C@H]1c1nc2cc(F)ccc2o1` [Example 628, (S)-(4-(5-fluorobenzo[d]oxazol-2-yl)-6,7-dihydro-1H-imidazo[4,5-c]pyridin-5(4H)-yl)(5-(pyrazin-2-yl)-1,3,4-oxadiazol-2-yl)methanone], for which the AC50 (A375 R408W cells) is 1000 to 5000 nM.

Turning to `CN1CCN(c2cn3ncc(C(=O)N4CCc5[nH]cnc5[C@H]4c4nc5cc(F)ccc5o4)c3cc2Cl)CC1` [Example 181, (S)-(5-chloro-6-(4-methylpiperazin-1-yl)pyrazolo[1,5-a]pyridin-3-yl)(4-(5-fluorobenzo[d]oxazol-2-yl)-6,7-dihydro-1H-imidazo[4,5-c]pyridin-5(4H)-yl)methanone], the AC50 (A375 R408W cells) was not above 500 nM.

`Cn1cc(-c2nnc(C(=O)N3CCc4[nH]cnc4[C@@H]3c3nc4c(F)ccc(F)c4o3)o2)cn1` [Example 517, (R)-(4-(4,7-difluorobenzo[d]oxazol-2-yl)-6,7-dihydro-1H-imidazo[4,5-c]pyridin-5(4H)-yl)(5-(1-methyl-1H-pyrazol-4-yl)-1,3,4-oxadiazol-2-yl)methanone]: the AC50 (A375 R408W cells) was in the range of 1000 to 5000 nM.

In the case of `CC(C)(O)c1nnc(C(=O)N2CCc3[nH]cnc3C2c2nc3cc(F)ccc3o2)o1` (centres unmarked), under setting [1], the AC50 was not below 5000 nM.

Take `O=C(c1cnco1)N1CCc2[nH]cnc2C1c1nc2c(F)cc(F)cc2o1` (centres unmarked): the AC50 under setting [1] was not below 5000 nM.

`Cn1cc(-c2nnc(C(=O)N3CCc4[nH]cnc4[C@@H]3c3nc4c(F)cc(F)cc4o3)o2)cn1` [Example 521, (R)-(4-(4,6-difluorobenzo[d]oxazol-2-yl)-6,7-dihydro-1H-imidazo[4,5-c]pyridin-5(4H)-yl)(5-(1-methyl-1H-pyrazol-4-yl)-1,3,4-oxadiazol-2-yl)methanone]: the AC50 (A375 R408W cells) was in the range of 1000 to 5000 nM.

Take `CC(C)(O)c1cc(C(=O)N2CCc3[nH]cnc3C2c2nc3cc(F)ccc3o2)no1` (centres unmarked): the AC50 under setting [1] was not below 5000 nM.

Take `Cn1nc(C(C)(C)C)cc1C(=O)N1CCc2[nH]cnc2C1c1nc2ccccc2o1` (centres unmarked): the AC50 under setting [1] was not below 5000 nM.

As to `Cc1cccc2nc([C@H]3c4nc[nH]c4CCN3C(=O)c3cnco3)oc12` [Example 612, (R)-(4-(7-methylbenzo[d]oxazol-2-yl)-6,7-dihydro-1H-imidazo[4,5-c]pyridin-5(4H)-yl)(oxazol-5-yl)methanone], the AC50 (A375 R408W cells) was in the range of 1000 to 5000 nM.

`CC(C)(O)c1nc(C(=O)N2CCc3[nH]cnc3C2c2nc3c(F)cccc3o2)no1` (centres unmarked): the AC50 under setting [1] fell in the range of 1000 to 5000 nM.

As for `Cc1cccc2oc([C@@H]3c4nc[nH]c4CCN3C(=O)c3ocnc3C(F)F)nc12` [Example 382, (S)-(4-(difluoromethyl)oxazol-5-yl)(4-(4-methylbenzo[d]oxazol-2-yl)-6,7-dihydro-1H-imidazo[4,5-c]pyridin-5(4H)-yl)methanone], the AC50 (A375 R408W cells) was not above 500 nM.

`Cn1cc(-c2ncc(C(=O)N3CCc4[nH]cnc4C3c3nc4ccc(Br)cc4o3)s2)cn1` (centres unmarked): the AC50 under setting [1] fell in the range of 1000 to 5000 nM.

`Cc1ccc(C)c2oc([C@@H]3c4nc[nH]c4CCN3C(=O)c3oc(C(C)(C)O)nc3C(F)F)nc12` [Example 659, (S)-(4-(difluoromethyl)-2-(2-hydroxypropan-2-yl)oxazol-5-yl)(4-(4,7-dimethylbenzo[d]oxazol-2-yl)-6,7-dihydro-1H-imidazo[4,5-c]pyridin-5(4H)-yl)methanone]: the AC50 (A375 R408W cells) was not above 500 nM.

On to `CN(C)CCc1ccc2c(C(=O)N3CCc4[nH]cnc4[C@H]3c3nc4cc(F)ccc4o3)cnn2c1` [Example 47, (S)-(6-(2-(dimethylamino)ethyl)pyrazolo[1,5-a]pyridin-3-yl)(4-(5-fluorobenzo[d]oxazol-2-yl)-6,7-dihydro-1H-imidazo[4,5-c]pyridin-5(4H)-yl)methanone], for which, where the note is “A375 R408W cells”, the AC50 fell in the range of 1000 to 5000 nM.

Consider `O=C(c1nnc(-c2ccncn2)o1)N1CCc2[nH]cnc2C1c1nc2cc(F)ccc2o1` (centres unmarked), for which, under setting [1], the concentration at half-maximal activity (AC50) lay within 1000 to 5000 nM.

Turning to `Cn1nc(C(F)F)nc1C(=O)N1CCc2[nH]cnc2C1c1nc2c(F)cccc2o1` (centres unmarked), under setting [1], the AC50 fell in the range of 1000 to 5000 nM.

For `O=C(c1cnn2cc(N3CCN(C4CC4)CC3)ccc12)N1CCc2[nH]cnc2[C@H]1c1nc2cc(F)ccc2o1` [Example 133, (S)-(6-(4-cyclopropylpiperazin-1-yl)pyrazolo[1,5-a]pyridin-3-yl)(4-(5-fluorobenzo[d]oxazol-2-yl)-6,7-dihydro-1H-imidazo[4,5-c]pyridin-5(4H)-yl)methanone], the concentration at half-maximal activity (AC50) (A375 R408W cells) was in the range of 500 to 1000 nM.

For `Cc1ccc2oc([C@H]3c4nc[nH]c4CCN3C(=O)c3nnc(-c4cnn(C(F)F)c4)o3)nc2c1` [Example 674, (R)-(5-(1-(difluoromethyl)-1H-pyrazol-4-yl)-1,3,4-oxadiazol-2-yl)(4-(5-methylbenzo[d]oxazol-2-yl)-6,7-dihydro-1H-imidazo[4,5-c]pyridin-5(4H)-yl)methanone], for the setting “A375 R408W cells”, the AC50 was in the range of 1000 to 5000 nM.

“(R)-(4-(5-fluorobenzo[d]oxazol-2-yl)-6,7-dihydro-1H-imidazo[4,5-c]pyridin-5(4H)-yl)(6-(methoxymethyl)pyrazolo[1,5-a]pyridin-3-yl)methanone [Example 30]”: the AC50 (A375 R408W cells) was not below 5000 nM.
